Test results: patent publication US20250027041A1, “COMPOSITION FOR INDUCING TRANSDIFFERENTIATION AND STEM CELLS TREATED THEREWITH” (YJ CERAPEUTICS INC., priority 2021, published 2025)

Legend:
CtBP1 = CtBP1 (Homo sapiens, UniProt Q13363); assay: DARTS assay, CtBP1; assay type: binding; parameters: expressed in transfected cells; host or cells: human UCB-MSC (Kang Stem Cell), lysate
Procedure: To identify proteins binding to compounds of the present invention, YJ101 (Chemical Formula 1), YJ102 (Chemical Formula 2), and YJ103 (Chemical Formula 3), in human umbilical cord blood-derived mesenchymal stem cells (UCB-MSCs), DART assay was performed. Specifically, UCB-MSCs (Kang Stem Cell, Passage #6) were dispensed into a 100 mm culture dish and incubated in a KSB-3 medium (Cat. K3901, Kang Stem Cell) containing 10% FBS (Cat. 16000044), and then collected and washed with PBS. Thereafter, the cells were added with an IP50 lysis buffer [50 mM Tris-HCl (pH 7.4), 150 mM NaCl, 2 mM MgCl2, and 0.1% NP40], sonicated, and centrifuged at 13,000×g for 10 minutes at 4° C. to obtain the supernatant. The supernatant was added with 1/10 volume of 10×TNC buffer [500 mM Tris-HCl (pH 8.0), 500 mM NaCl, and 100 mM CaCl2)], and protein concentration was measured using a Bradford method. Thereafter, 9 μl of a cell lysate and 1 μl of YJ101 (20 or M), YJ102 (20 or 30 μM), or YJ103 (20 or 40 μM) were mixed in a microcentrifuge tube and incubated at room temperature for 1 hour. A control group was treated with 1 μl of DMSO. After incubation, 1 μl (1 mg/ml) of Pronase (Cat. 10 165 921 001, Roche) diluted to 1 mg/ml using a 1×TNC buffer was added to the microcentrifuge tube and incubated at 37° C. for 15 minutes. After incubation, ⅕ volume of a 5×SDS-PAGE loading buffer was added, heated at 100° C. for 5 minutes, and then SDS-PAGE and Coomassie blue staining were performed. In addition, UCB-MSCs were dispensed at 4×10^5 cells/ml in a 60 mm culture dish, and after 24 hours, 4 μg of FLAG-CtBP1 or FLAG-CtBP2 DNA was transfected using 4 μl of jetPRIME. After 48 hours, the cells were collected, and proteins were extracted and quantified using the same method as above. DARTS assay was performed with the cell lysate of CtBP1 and Y102 labeled with FLAG, and Western blot assay was performed with a flag antibody (Cat. F3165, Sigma).

human UCB-MSCs [1] = assay: Tuj1 immunochemical assay with CtBP inhibitors; assay type: cell-based; details: 30 μM, 5 days
Procedure: To determine CtBP1-mediated ciNSC5 differentiation by YJ102 in human UCB-MSCs, a CTBP1 mechanism by treatment with NSC95397 or 4-methylthio-2-oxobutanoate (MTOB) was analyzed by immunochemical assay. Specifically, UCB-MSCs were dispensed at 2.1×10^4 cells/well in a 12-well plate containing an 18 mm cover glass (circular) (a DMSO control group was dispensed at 3.5×10^3 cells/well). […] The culture medium was removed, washed with PBS, and fixed with 4% paraformaldehyde at room temperature for 10 minutes. After washed three times with PBS, the cells were permeabilized with PBS-T containing 0.5% Triton X-100 for 10 minutes, washed with PBS-T three times for 10 minutes each, and then blocked with a blocking solution (PBS-T containing 5% BSA and 5% goat serum) for 1 hour. Thereafter, the cells were treated with anti-Tuj1 antibody (Cat. 801201, BioLegend) diluted 1/5000 in a blocking solution and incubated at 4° C. overnight. The next day, the cells were washed 10 times for 10 minutes each with PBS-T, and then treated with anti-mouse IgG-cy3 (Cat. 111-165-003, Jackson ImmunoResearch) diluted 1/2000 in a blocking solution, and incubated for 1 hour in dark conditions. Next, the cells were washed 10 times for 10 minutes each with PBS-T, mounted with a mounting solution containing DAPI, and then observed with a confocal microscope.

human UCB-MSCs [2] = assay: RNA-seq gene expression; assay type: cell-based; details: UCB-MSCs treated with YJ102 30 μM for 3 days
Procedure: The expression gene profile of ciNSC5, which was transdifferentiated from human UCB-MSCs by treating YJ102 for 5 days, was analyzed using genome-wide RNA-seq. Specifically, 1×10^5 human UCB-MSCs were dispensed in a 60 mm culture dish (a control group dispensed at 1.67×10^4), the cells were treated with YJ102 dissolved at 30 mM in DMSO at a concentration of 30 μM (the control group treated with DMSO), and incubated at 37° C. for 2, 3, or 5 days. Thereafter, the culture medium was removed, washed with PBS, and the cells were collected with a scraper and transferred to a microcentrifuge tube. PBS was removed by centrifugation, and the cells were added with 500 μl of a Tri-RNA Reagent and mixed well by pipetting. The mixture was added with 100 μl of chloroform, the tube was mixed by vortexing for 15 seconds, and then centrifuged at 4° C. at 14,000 rpm for 20 minutes. Thereafter, the upper aqueous phase was transferred to a new microcentrifuge tube using a pipette, and added and mixed with 550 μl of isopropanol. The mixture was centrifuged at 14,000 rpm at 4° C. for 20 minutes, the supernatant was discarded, and the pellet was washed with 1 ml of 70% ethanol. […] The pellet was resuspended in 100 μl RNase-free DIW, centrifuged at 14,000 rpm for 10 minutes at 4° C. to remove the supernatant, air-dried, and then the RNA concentration was quantified using nanodrop. […]

## CCc1ccc(N(C(=O)COC)c2nc3cc(Cl)ccc3o2)cc1 [YJ102]
CtBP1; FLAG-CtBP1 transfected UCB-MSC lysate, YJ101 (20 or M), YJ102 (20 or 30 μM), YJ103 (20 or 40 μM)
  overexpressed CtBP1 (flag-CtBP1) protection from degradation by pronase (DARTS): protected
CtBP1; endogenous CtBP1, UCB-MSC lysate, YJ102 20 or 30 μM
  CtBP1 protection from degradation by pronase (DARTS): protected
CtBP1; human UCB-MSC
  binding to CtBP1: bound to CtBP1
Human UCB-MSCs [1]
  differentiation of UCB-MSCs into ciNSC5 through CtBP1 regulation: differentiated UCB-MSCs into ciNSC5
Human UCB-MSCs [2]
  expression of cell division-related genes (RNA-seq): decreased
  expression of nervous system-related genes (RNA-seq): increased
